Blank lines part the entries; values can stand above or below the compound they belong to.
Tests used:
[1] = In vivo heart uptake in mice, gadolinium by ICP-MS (tail vein); set-up: species or system BALB/c mice; settings: mouse, 10 μmol/kg tail vein, 15 minutes post-injection
Experimental: In vivo heart uptake of these two compounds were also compared. […] The animals were sacrificed at 15 minutes post-injection. The organs were immediately removed and rinsed in saline, and then blotted dry. […] Both compounds have similar concentrations in the blood.

infarcted myocardium [2] = test: Mouse model of chronic infarction, MR imaging; settings: mice with 7 day, 40 day or 210 day infarcts, 25 μmol/kg i.v.
infarcted myocardium [3] = test: Myocardial infarction MR imaging in mouse (7 days post MI); settings: 25 μmol/kg i.v.
[4] = Biodistribution (heart, blood) after tail vein injection, radiotracer counting; type: in vivo, Sprague-Dawley rats; settings: for Blood (% ID/g) / Heart (% ID/g): rat, 0.5 μmol/kg tail vein
Experimental: Concentration estimates were decay corrected. Studies were performed at least in duplicate.

[5] = tested on: perfused Langendorff rat heart; test: Equilibrium binding to perfused Langendorff rat heart
Experimental: After deep anesthesia with pentobarbital (80 mg/kg ip), the chest cavity of a male Sprague Dawley rat (300 g) was opened, retracted and the heart was removed immediately and placed in an ice-cold normal Krebs-Henseleit (K-H) solution (NaCl, 118 mM; KCl, 4.7 mM; CaCl2, 2.5 mM; MgSO4, 1.2 mM; KH2PO4, 1.2 mM; NaHCO3, 25 mM; glucose, 5.5 mM). A K-H buffer filled 20 Gauge needle was inserted into the apex of the heart penetrating into the bottom of the chamber. This was attached to a pressure transducer used to record and monitor heart function. Perfusion pressure (60 mmHg) was monitored using a second transducer. The heart was perfused at a constant flow rate of 10-12 mL/min with 37° C. Krebs-Henseleit buffer saturated with a mixture of 95% O2 and 5% CO2 gas. The heart was paced at 300 beats/min.
Two peptide test articles, a high collagen binding peptide (SEQ ID NO: 144) and a low collagen binding peptide (SEQ ID NO: 173), are compared to GdDTPA. The appropriate test article was added to the K-H buffer solution to a total concentration of either 3 or 30 μM. Also added to the K-H buffer was a radiotracer analog of each peptide or GdDTPA. For the peptides, the radiotracer was an aliquot of the appropriate I-125 labeled peptide derivative (see Example 5 for protocol). For GdDTPA, the tracer added was Tc-99m labeled DTPA. The amount of radioactivity added to the buffer solution was 1-5 μCi.
The heart was perfused for a period of 10 minutes and the perfusion solution was recycled through the heart. The total volume of K-H buffer used was 50-60 mL. After 10 min, the heart was removed from the apparatus and any connective tissue was removed. The heart was opened, fluid in the chambers drained, and the interior blotted dry with filter paper. The heart was then weighed and the radioactivity in the heart measured with a Packard Cobra 5003 Gamma Scintillation counter. An aliquot of the K-H buffer was also weighed and counted. Studies were performed at least in duplicate.
The dual peptide gadolinium tetramer (Compound ID 803) was compared to GdDTPA. Compound ID 803 and GdDTPA were added to the K-H buffer solution to a total concentration of 3 μM. Also added to the K-H buffer was a radiotracer analog of Compound ID 803 or GdDTPA. For Compound ID 803, the radiotracer was an aliquot of the In-111 labeled compound. For GdDTPA, the tracer added was Tc-99m labeled DTPA. The amount of radioactivity added to the buffer solution was 1-5 μCi.

[6] = tested on: perfused Langendorff rat heart; test: Washout kinetics from perfused Langendorff rat heart
Experimental: A K-H buffer filled 20 Gauge needle was inserted into the apex of the heart penetrating into the bottom of the chamber. This was attached to a pressure transducer used to record and monitor heart function. Perfusion pressure (60 mmHg) was monitored using a second transducer. The heart was perfused at a constant flow rate of 10-12 mL/min with 37° C. […] The heart was paced at 300 beats/min.
A Langendorff rat heart preparation was perfused with K-H buffer at a rate of 10-12 mL/min. […] After the infusion was finished, the heart was either removed or perfusion was allowed to continue for an additional 10 minutes and then the heart was removed. The perfusion buffer was not recirculated through the heart. After removal of any connective tissue, the heart was opened, fluid in the chambers drained, and the interior blotted dry with filter paper. […] An aliquot of the K-H buffer was also weighed and counted. Concentration estimates were decay corrected. Studies were performed at least in duplicate.

[7] = MR phantom study: T1 of samples at 0.47 Tesla; type: physicochemical; settings: 37° C.
Experimental: Acid soluble human collagen type I extracted from placenta (Sigma, cat# C7774, lot#083K375) was dissolved in 15 mM HCl (3.5 mg/mL) by vortexing and gently shaking for 3-4 hours at 4° C. The acid soluble collagen was dialyzed against PBS (pH 7.4). Protein concentration was determined by the BCA method (Pierce, Cat#23225) using bovine collagen (Vitrogen, cat#FXP-019) as a reference standard. The final collagen concentration for the stock solution was 9 μM.
Rat collagen (acid soluble, type I, rat tail, Upstate USA, Inc. Cat# 08-115) was dialyzed against 10 mM Phosphate buffer (NaH2PO4, pH 4.2). The final collagen concentration for the stock solution was approx. 12 μM.
(§1) Samples: • 1. […] Sample prepared as sample 2, but centrifuged to separate insoluble rat collagen gel • 5. Sample prepared as sample 3, but centrifuged to separate insoluble human collagen gel • 6. 27 μM GdDTPA solution in PBS, pH 7.4 • 7. 27 μM GdDTPA in a solution of 5.0 μM rat type I collagen in 10 mM phosphate buffer, pH 5 incubated at 37° C. overnight to form a gel • 8. Sample prepared as in sample 7, but centrifuged to separate insoluble rat collagen gel • 9. Homogeneous gel of 5 μM rat collagen • 10. Homogeneous gel of 7.5 μM human collagen
T1 was determined for samples 1, 2, 3, 6, 7, 9, 10 at 0.47 Tesla using a Bruker NMS120 minispec NMR analyzer operating at 37° C.

rat type I collagen gel = molecular target: T1, rat type I collagen gel (Rattus norvegicus, UniProt P02454+P02466); test: MR phantom imaging of collagen gel samples at 4.7 T
T1 construct: Rat collagen (acid soluble, type I, rat tail, Upstate USA, Inc, cat# 08-115); purchased Upstate USA, Inc 08-115; host or cells: rat tail (tissue extract)
T1 sequence (P02454 152-1207 limits assumed): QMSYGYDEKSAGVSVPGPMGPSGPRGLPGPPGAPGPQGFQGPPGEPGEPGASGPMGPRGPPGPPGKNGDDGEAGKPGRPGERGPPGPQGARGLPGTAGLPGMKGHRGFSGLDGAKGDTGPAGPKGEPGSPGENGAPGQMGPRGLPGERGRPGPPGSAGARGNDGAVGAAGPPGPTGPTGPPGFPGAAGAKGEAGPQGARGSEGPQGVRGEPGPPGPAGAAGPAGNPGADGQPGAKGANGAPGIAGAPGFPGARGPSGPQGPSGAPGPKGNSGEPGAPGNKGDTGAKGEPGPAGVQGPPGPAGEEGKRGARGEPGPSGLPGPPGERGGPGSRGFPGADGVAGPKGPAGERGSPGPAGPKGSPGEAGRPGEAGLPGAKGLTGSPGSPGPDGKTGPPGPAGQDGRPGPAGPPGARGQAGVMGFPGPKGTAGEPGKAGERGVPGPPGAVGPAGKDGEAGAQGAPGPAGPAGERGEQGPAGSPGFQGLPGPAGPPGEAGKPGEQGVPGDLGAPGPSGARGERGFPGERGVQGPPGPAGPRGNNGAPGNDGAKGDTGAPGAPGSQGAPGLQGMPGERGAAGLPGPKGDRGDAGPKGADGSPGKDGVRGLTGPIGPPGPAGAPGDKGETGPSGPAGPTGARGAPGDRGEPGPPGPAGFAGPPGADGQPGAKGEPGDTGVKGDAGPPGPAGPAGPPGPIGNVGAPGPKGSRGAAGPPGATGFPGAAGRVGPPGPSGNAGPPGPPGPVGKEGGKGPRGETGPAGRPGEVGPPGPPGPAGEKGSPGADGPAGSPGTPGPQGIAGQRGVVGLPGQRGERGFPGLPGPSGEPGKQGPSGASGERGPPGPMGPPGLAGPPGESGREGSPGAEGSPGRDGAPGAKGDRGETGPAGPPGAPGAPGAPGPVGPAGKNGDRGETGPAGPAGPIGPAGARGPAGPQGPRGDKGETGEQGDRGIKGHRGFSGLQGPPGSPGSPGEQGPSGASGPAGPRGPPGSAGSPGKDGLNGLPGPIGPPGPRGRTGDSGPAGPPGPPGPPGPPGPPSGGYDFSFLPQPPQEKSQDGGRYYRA
T1 sequence (P02466 86-1125 limits assumed): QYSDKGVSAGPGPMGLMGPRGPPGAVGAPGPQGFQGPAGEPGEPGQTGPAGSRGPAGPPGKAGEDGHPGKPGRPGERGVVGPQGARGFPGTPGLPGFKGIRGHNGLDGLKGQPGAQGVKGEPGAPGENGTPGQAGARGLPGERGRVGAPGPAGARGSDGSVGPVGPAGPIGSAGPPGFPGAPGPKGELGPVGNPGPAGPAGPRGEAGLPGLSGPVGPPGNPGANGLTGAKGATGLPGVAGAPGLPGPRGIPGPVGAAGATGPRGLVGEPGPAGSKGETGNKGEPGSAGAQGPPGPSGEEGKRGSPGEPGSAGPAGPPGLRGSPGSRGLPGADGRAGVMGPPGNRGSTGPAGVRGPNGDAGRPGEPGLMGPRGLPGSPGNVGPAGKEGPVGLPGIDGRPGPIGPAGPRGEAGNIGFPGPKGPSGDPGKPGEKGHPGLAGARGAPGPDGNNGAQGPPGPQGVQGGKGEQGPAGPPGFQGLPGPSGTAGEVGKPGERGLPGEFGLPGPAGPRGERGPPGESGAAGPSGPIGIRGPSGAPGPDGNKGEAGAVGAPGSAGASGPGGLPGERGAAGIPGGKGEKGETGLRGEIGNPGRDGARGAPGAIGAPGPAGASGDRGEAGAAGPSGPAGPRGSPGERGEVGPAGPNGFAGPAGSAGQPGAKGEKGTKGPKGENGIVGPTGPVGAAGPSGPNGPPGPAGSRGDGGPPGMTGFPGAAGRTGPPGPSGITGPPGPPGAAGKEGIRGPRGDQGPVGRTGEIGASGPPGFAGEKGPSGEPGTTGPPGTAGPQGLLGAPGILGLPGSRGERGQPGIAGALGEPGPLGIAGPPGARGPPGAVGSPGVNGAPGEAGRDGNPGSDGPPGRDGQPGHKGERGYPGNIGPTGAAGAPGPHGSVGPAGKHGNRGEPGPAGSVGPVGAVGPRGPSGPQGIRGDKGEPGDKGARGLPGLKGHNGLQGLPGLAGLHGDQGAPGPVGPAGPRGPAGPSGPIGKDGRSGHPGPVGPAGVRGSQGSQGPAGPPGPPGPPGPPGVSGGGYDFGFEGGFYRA
Experimental: as §1
Samples for imaging were placed in glass tubes that were in turn placed in tubes containing water. Images were acquired at 4.7 T on a Bruker Biospec Imager using a Multi-Slice Multi-Echo Method with variable Relaxation Delay (MSMEVTR) experiment. The spin echo time and the relaxation delay were set to TE=11.2 ms and TR=500 ms, respectively with a flip angle of 30°. Images were acquired of sample 2, sample 4, sample 7, and sample 8. […] Sample 7 and 8 show uniform signal intensity.

SMILES: CC(C)C[C@H](NC(=O)[C@@H]1CSSC[C@H](NC(=O)[C@H](Cc2c[nH]cn2)NC(=O)[C@H](Cc2c[nH]c3ccccc23)NC(=O)[C@H](CCCCNC(=O)CNC(=S)Nc2ccc(C[C@@H](CN(CCN(CC(=O)O)CC(=O)O)CC(=O)O)N(CC(=O)O)CC(=O)O)cc2)NC(=O)CNC(=S)Nc2ccc(C[C@@H](CN(CCN(CC(=O)O)CC(=O)O)CC(=O)O)N(CC(=O)O)CC(=O)O)cc2)C(=O)N[C@@H]([C@@H](C)O)C(=O)N[C@@H]([C@@H](C)O)C(=O)N[C@@H](CCCCNC(=S)Nc2ccc(C[C@@H](CN(CCN(CC(=O)O)CC(=O)O)CC(=O)O)N(CC(=O)O)CC(=O)O)cc2)C(=O)N[C@@H](Cc2ccccc2)C(=O)N2CCC[C@H]2C(=O)N[C@@H](Cc2c[nH]cn2)C(=O)N[C@@H](Cc2c[nH]cn2)C(=O)N[C@@H](Cc2ccc(O)cc2)C(=O)N1)C(=O)N[C@@H](Cc1ccc(O)cc1)C(=O)N[C@@H](Cc1ccc(-c2ccccc2)cc1)C(N)=O [Compound ID 800]
Gadolinium concentrations in the blood [1]: 14.3±2.3 nmol Gd/g tissue | Gadolinium concentrations in the heart [1]: 25.5±2.0 nmol Gd/g tissue | MR appearance of infarct zone (infarcted myocardium [2]): infarct zone as hyperintense relative to the normal, viable myocardium | enhancement of infarcted zones (infarcted myocardium [3]): hyperenhancement of infarcted zones | persistence of the enhancement (infarcted myocardium [3]): at least 1 hour

Heart:Blood ([4]; 1 min post injection): 0.26 | Heart:Blood ([4]; 5 min post injection): 0.26 | Blood (% ID/g) ([4]; 1 min post injection): 1.2 ± 0.2 % ID/g | Heart (% ID/g) ([4]; 1 min post injection): 0.32 ± 0.02 % ID/g | Blood (% ID/g) ([4]; 5 min post injection): 0.67 ± 0.12 % ID/g | Heart (% ID/g) ([4]; 5 min post injection): 0.17 ± 0.08 % ID/g | Heart:Buffer ([5]; buffer 3.0 μM): 0.42 ± 0.06 | Heart ([5]; buffer 3.0 μM, 10 minutes recirculating perfusion): 1.3 ± 0.3 nmol/g | Heart:Buffer ([5]; buffer 30 μM): 0.46 ± 0.03 | Heart ([5]; buffer 30 μM, 10 minutes recirculating perfusion): 14 ± 1.0 nmol/g | Heart ([5]; perfused Langendorff rat heart, 3 μM compound in recirculated K-H buffer, 10 min perfusion, radiotracer counting): 1.4 ± 0.02 nmol/g | Heart:Buffer ([5]; ratio of heart concentration to buffer concentration (3.0 μM), 10 min perfusion): 0.46 ± 0.05 | T1 ([7]; in 5.0 μM rat collagen gel, 10 μM Compound ID 1022 or 27 μM GdDTPA): 2.410 s | T1 ([7]; in PBS pH 7.4, 10 μM Compound ID 1022 or 27 μM GdDTPA): 2.437 s
SMILES: O=C([O-])CN(CCN(CC(=O)[O-])CC(=O)O)CCN(CC(=O)[O-])CC(=O)O.[Gd+3] [GdDTPA, gadolinium diethylenetriaminepentaacetate, reference compound]
Heart (% ID/g) ([6]; 0 min after infusion): 2.9 ± 1.5 % ID/g | Heart (% ID/g) ([6]; 10 min after infusion, non-recirculated buffer): 0.014 ± 0.002 % ID/g | Heart (% ID/g) ([6]; time after infusion 0 min, 1 mL of 300 μM infused at 1 mL/min, buffer not recirculated): 2.53 ± 0.50 % ID/g | Heart (% ID/g) ([6]; time after infusion 10 min, 1 mL of 300 μM infused at 1 mL/min, buffer not recirculated): 0.056 ± 0.011 % ID/g | MR signal of centrifuged collagen gel pellet versus supernatant (rat type I collagen gel): no increased concentration of GdDTPA in the gel relative to the supernatant

— US20080058636A1, “METHODS OF MYOCARDIAL IMAGING” (Epix Pharmaceuticals, Inc., priority 2005, published 2008)
